Results on one compound are retold here after patent US12569438B2, “Nanomaterials containing constrained lipids and uses thereof” (GEORGIA TECH RESEARCH CORPORATION, priority 2019, dated 2026).

The test relates to splenic T cells. Put plainly: DNA barcode/siGFP high throughput in vivo screen: delivery and enrichment of pooled LNPs in GFP^Low splenic T cells. To be noted: pooled LNPs 1.5 mg/kg total iv, 3 days. Set-up: species or system mice. From the text:
DNA Barcoding. Each chemically distinct LNP was formulated to carry its own unique DNA barcode and siRNA. For example, LNP1 carried DNA barcode 1 and siICAM2, while the chemically distinct LNP2 carried DNA barcode 2 and siGFP. Single stranded DNA sequences were purchased from Integrated DNA Technologies (IDT). To ensure equal amplification of each sequence, we included universal forward and reverse primer regions. Each barcode was distinguished using a unique 8 nucleotide sequence. An 8 nucleotide sequence can generate 65,536 distinct barcodes. 156 distinct sequences designed to prevent sequence ‘bleaching’ on the Illumina MiniSeq sequencing machine were used.
Animal Experiments. […] Mice were injected intravenously via the lateral tail vein. The nanoparticle concentration was determined using NanoDrop (Thermo Scientific).
Cell Isolation & Staining. […]
LNP delivery of siRNA to target cells (in this case, T lymphocytes) as well as 8 off-target cell types in vivo was evaluated. siGFP chemically modified to reduce immunostimulation and enhance on-target silencing via preferential antisense RISC loading (FIG. S2A) was used. […] The GFP acted as the functional delivery readout. […] Thus, 3 days after injecting mice, GFP^Low cells were isolated using fluorescence activated cell sorting (FACS), and deep sequenced to quantify the efficiency with which all N LNPs delivered barcodes into the cells. […]

As for `CCCCC/C=C\C/C=C\CCCCCCCC(=O)OCC(COC(=O)C[C@]12CC3CC(C[C@@H](C3)C1)C2)COC(=O)OCCCN(CC)CC` (some centres unmarked) [Lipomer 11-A, 3-[(1-Adamantanyl)acetoxy]-2-{[3-(diethylamino)propoxycarbonyloxy]methyl}propyl (9Z,12Z)-9,12-octadecadienoate], the “Normalized DNA delivery” value (GFP^Low splenic T cells) was “significantly more delivery than 11-L and 11-S”. Moreover, the “Enrichment in T Cells” value (splenic T cells, top 10% vs bottom 10% LNPs, DSPC formulations) was “most enriched”.
